# Experimental data from PMC5218480 (PLoS ONE, 2017).
# System: MV-4-11 cells
# Assay: Gene expression microarray analysis (Affymetrix PrimeView) and GSEA
# Format: cell-based, human
# Parameters: RFU PODN (11730768_x_at) / Fold change /veh PODN (11730768_x_at) / RFU LINC00158 (11744669_a_at) / Fold change /veh LINC00158 (11744669_a_at) / RFU DUSP10 (11751237_a_at) / Fold change /veh DUSP10 (11751237_a_at) / RFU ID3 (11757404_x_at) / Fold change /veh ID3 (11757404_x_at) / RFU PLEKHG5 (11737974_s_at) / Fold change /veh PLEKHG5 (11737974_s_at) / RFU LRRC4B (11730491_at) / Fold change /veh LRRC4B (11730491_at) / RFU GIMAP4 (11747438_a_at) / Fold change /veh GIMAP4 (11747438_a_at) / RFU KRT8 (11758183_x_at) / Fold change /veh KRT8 (11758183_x_at) / RFU CNN1 (11734310_a_at) / Fold change /veh CNN1 (11734310_a_at) / RFU VPS37D (11726825_at) / Fold change /veh VPS37D (11726825_at) / RFU C10orf10 (11716522_x_at) / Fold change /veh C10orf10 (11716522_x_at) / RFU KIR2DL2 /// KIR2DL4 /// KIR2DL5A /// KIR2DL5B /// KIR2DS1 /// KIR2DS2 /// KIR2DS3 /// KIR2DS4 /// KIR3DL3 /// KIR3DL3 /// KIR3DS1 (11738374_at) / Fold change /veh KIR2DL2 /// KIR2DL4 /// KIR2DL5A /// KIR2DL5B /// KIR2DS1 /// KIR2DS2 /// KIR2DS3 /// KIR2DS4 /// KIR3DL3 /// KIR3DL3 /// KIR3DS1 (11738374_at) / RFU C1QL1 (11718748_at) / Fold change /veh C1QL1 (11718748_at) / RFU TMPRSS4 (11747572_a_at) / Fold change /veh TMPRSS4 (11747572_a_at) / RFU HAMP (11756126_x_at) / Fold change /veh HAMP (11756126_x_at) / RFU RNFT2 (11725882_a_at) / Fold change /veh RNFT2 (11725882_a_at) / RFU NR4A2 (11747474_a_at) / Fold change /veh NR4A2 (11747474_a_at) / RFU ABCC12 (11746883_a_at) / Fold change /veh ABCC12 (11746883_a_at) / RFU TMEM136 (11760407_x_at) / Fold change /veh TMEM136 (11760407_x_at) / RFU CLDN22 /// WWC2 (11732394_at) / Fold change /veh CLDN22 /// WWC2 (11732394_at) / RFU HLA-DPB1 (11760878_x_at) / Fold change /veh HLA-DPB1 (11760878_x_at) / RFU SPINT1 (11716480_a_at) / Fold change /veh SPINT1 (11716480_a_at) / RFU GAP43 (11754022_s_at) / Fold change /veh GAP43 (11754022_s_at) / RFU A4GNT (11735810_at) / Fold change /veh A4GNT (11735810_at) / RFU PRB3 (11715151_x_at) / Fold change /veh PRB3 (11715151_x_at) / RFU TUBB4B (11761932_at) / Fold change /veh TUBB4B (11761932_at) / RFU CAPN14 (11732068_a_at) / Fold change /veh CAPN14 (11732068_a_at) / RFU TMCC2 (11721928_a_at) / Fold change /veh TMCC2 (11721928_a_at) / RFU IRGQ (11745062_a_at) / Fold change /veh IRGQ (11745062_a_at) / RFU FAM174B (11720279_a_at) / Fold change /veh FAM174B (11720279_a_at) / RFU TMPRSS4 (11748680_a_at) / Fold change /veh TMPRSS4 (11748680_a_at) / RFU FAM212B (11763350_a_at) / Fold change /veh FAM212B (11763350_a_at) / RFU PLEKHG5 (11743358_a_at) / Fold change /veh PLEKHG5 (11743358_a_at) / RFU ZSCAN30 (11745921_a_at) / Fold change /veh ZSCAN30 (11745921_a_at) / RFU CMKLR1 (11741424_a_at) / Fold change /veh CMKLR1 (11741424_a_at) / RFU LOC101060620 /// MAPK8IP1 (11723275_at) / Fold change /veh LOC101060620 /// MAPK8IP1 (11723275_at) / RFU SPTSSB (11747773_x_at) / Fold change /veh SPTSSB (11747773_x_at) / RFU PRSS12 (11739890_at) / Fold change /veh PRSS12 (11739890_at) / RFU BIN1 (11741810_x_at) / Fold change /veh BIN1 (11741810_x_at) / RFU WNT11 (11732464_a_at) / Fold change /veh WNT11 (11732464_a_at) / RFU C10orf10 (11716521_a_at) / Fold change /veh C10orf10 (11716521_a_at) / RFU C5orf56 (11738089_at) / Fold change /veh C5orf56 (11738089_at) / RFU CYB561 (11721691_x_at) / Fold change /veh CYB561 (11721691_x_at) / RFU ANKRD19P (11752326_a_at) / Fold change /veh ANKRD19P (11752326_a_at) / RFU OR2T12 /// OR2T33 /// OR2T8 (11738714_s_at) / Fold change /veh OR2T12 /// OR2T33 /// OR2T8 (11738714_s_at) / RFU VCAN (11748164_a_at) / Fold change /veh VCAN (11748164_a_at) / RFU JSRP1 (11732532_at) / Fold change /veh JSRP1 (11732532_at) / RFU KRTAP10-11 (11738290_x_at) / Fold change /veh KRTAP10-11 (11738290_x_at) / RFU MYO3A (11730013_a_at) / Fold change /veh MYO3A (11730013_a_at) / RFU EBF3 (11725865_a_at) / Fold change /veh EBF3 (11725865_a_at) / RFU CAMK2N1 (11719241_x_at) / Fold change /veh CAMK2N1 (11719241_x_at) / RFU C5orf56 (11738088_a_at) / Fold change /veh C5orf56 (11738088_a_at) / RFU OLFML3 (11715873_a_at) / Fold change /veh OLFML3 (11715873_a_at) / RFU LOC100653217 /// NTM (11731650_a_at) / Fold change /veh LOC100653217 /// NTM (11731650_a_at) / RFU MAPK11 (11762145_a_at) / Fold change /veh MAPK11 (11762145_a_at) / RFU FIZ1 (11724087_x_at) / Fold change /veh FIZ1 (11724087_x_at) / RFU OASL (11726364_x_at) / Fold change /veh OASL (11726364_x_at) / RFU SOX15 (11748057_x_at) / Fold change /veh SOX15 (11748057_x_at) / RFU CD79A (11719716_a_at) / Fold change /veh CD79A (11719716_a_at) / RFU HIST1H1D (11736915_at) / Fold change /veh HIST1H1D (11736915_at) / RFU CASKIN2 (11723855_a_at) / Fold change /veh CASKIN2 (11723855_a_at) / RFU LOC730098 (11760151_x_at) / Fold change /veh LOC730098 (11760151_x_at) / RFU OR4N2 (11742367_at) / Fold change /veh OR4N2 (11742367_at) / RFU PRRT2 (11749266_a_at) / Fold change /veh PRRT2 (11749266_a_at) / RFU SNX32 (11753110_a_at) / Fold change /veh SNX32 (11753110_a_at) / RFU CDHR5 (11726645_a_at) / Fold change /veh CDHR5 (11726645_a_at) / RFU RCAN1 (11760418_a_at) / Fold change /veh RCAN1 (11760418_a_at) / RFU FAM167A (11723789_a_at) / Fold change /veh FAM167A (11723789_a_at) / RFU FAM26E (11764081_at) / Fold change /veh FAM26E (11764081_at) / RFU ISYNA1 (11749810_s_at) / Fold change /veh ISYNA1 (11749810_s_at) / RFU ACY1 (11761880_at) / Fold change /veh ACY1 (11761880_at) / RFU 11764098_at / Fold change /veh 11764098_at / RFU SAMD14 (11745864_x_at) / Fold change /veh SAMD14 (11745864_x_at) / RFU NPB (11741838_a_at) / Fold change /veh NPB (11741838_a_at) / RFU TMPRSS6 (11731388_a_at) / Fold change /veh TMPRSS6 (11731388_a_at) / RFU KRTAP10-2 (11738614_at) / Fold change /veh KRTAP10-2 (11738614_at) / RFU ARHGAP8 /// PRR5-ARHGAP8 (11727945_x_at) / Fold change /veh ARHGAP8 /// PRR5-ARHGAP8 (11727945_x_at) / RFU KRTAP5-7 /// NADSYN1 (11734609_at) / Fold change /veh KRTAP5-7 /// NADSYN1 (11734609_at) / RFU RASL12 (11751679_a_at) / Fold change /veh RASL12 (11751679_a_at) / RFU CDKN2B (11736163_a_at) / Fold change /veh CDKN2B (11736163_a_at) / RFU PRF1 (11729649_at) / Fold change /veh PRF1 (11729649_at) / RFU, ZNF638 /// ZNF638-IT1 / Fold change vs veh, ZNF638 /// ZNF638-IT1 / RFU, PANK3 / Fold change vs veh, PANK3 / RFU, SH3YL1 / Fold change vs veh, SH3YL1 / RFU, ZEB2 / Fold change vs veh, ZEB2 / RFU, NRIP1 / Fold change vs veh, NRIP1 / RFU, PTTG1IP / Fold change vs veh, PTTG1IP / RFU, CAPN2 / Fold change vs veh, CAPN2 / RFU, MED14 / Fold change vs veh, MED14 / RFU, SNORA58 / Fold change vs veh, SNORA58 / RFU, C1orf63 / Fold change vs veh, C1orf63 / RFU, LRRFIP1 / Fold change vs veh, LRRFIP1 / RFU, NDUFAF7 / Fold change vs veh, NDUFAF7 / RFU, SLC12A2 / Fold change vs veh, SLC12A2 / RFU, IBTK / Fold change vs veh, IBTK / RFU, ESF1 / Fold change vs veh, ESF1 / Fold change vs veh, TMEM50B / RFU, TAOK1 / Fold change vs veh, TAOK1 / RFU, ACBD3 / Fold change vs veh, ACBD3 / RFU, TMA16 / Fold change vs veh, TMA16 / RFU, RWDD3 / Fold change vs veh, RWDD3 / RFU, BCAT1 / Fold change vs veh, BCAT1 / RFU, EDEM3 / Fold change vs veh, EDEM3 / RFU, TMEM33 / Fold change vs veh, TMEM33 / RFU, WDR75 / Fold change vs veh, WDR75 / RFU, AHCTF1 / Fold change vs veh, AHCTF1 / RFU, TFRC / Fold change vs veh, TFRC / RFU, ZDHHC17 / Fold change vs veh, ZDHHC17 / RFU, NOM1 / Fold change vs veh, NOM1 / RFU, ARL8B / Fold change vs veh, ARL8B / RFU, ZBTB11 / Fold change vs veh, ZBTB11 / RFU, TAMM41 / Fold change vs veh, TAMM41 / RFU, KIAA1704 /// LOC100996395 / Fold change vs veh, KIAA1704 /// LOC100996395 / RFU, ING1 / Fold change vs veh, ING1 / RFU, TRMT61B / Fold change vs veh, TRMT61B / RFU, FUBP3 / Fold change vs veh, FUBP3 / RFU, TP53 / Fold change vs veh, TP53 / RFU, TNKS2 / Fold change vs veh, TNKS2 / RFU, ZFP14 / Fold change vs veh, ZFP14 / RFU, ACTR2 / Fold change vs veh, ACTR2 / RFU, PPP3R1 / Fold change vs veh, PPP3R1 / RFU, PIK3R1 / Fold change vs veh, PIK3R1 / RFU, HNRNPA1 / Fold change vs veh, HNRNPA1 / RFU, RNF170 / Fold change vs veh, RNF170 / RFU, ZNF28 / Fold change vs veh, ZNF28 / RFU, RNGTT / Fold change vs veh, RNGTT / RFU, OGT / Fold change vs veh, OGT / RFU, BRD1 / Fold change vs veh, BRD1 / RFU, MARS / Fold change vs veh, MARS / RFU, ZNF655 / Fold change vs veh, ZNF655 / RFU, FAHD1 / Fold change vs veh, FAHD1 / RFU, BDP1 / Fold change vs veh, BDP1 / RFU, LRRCC1 / Fold change vs veh, LRRCC1 / RFU, ARID1A / Fold change vs veh, ARID1A / RFU, ZNF146 / Fold change vs veh, ZNF146 / RFU, ZNF330 / Fold change vs veh, ZNF330 / RFU, GPN3 / Fold change vs veh, GPN3 / RFU, C9orf123 / Fold change vs veh, C9orf123 / RFU, N4BP2L2 / Fold change vs veh, N4BP2L2 / RFU, ARFIP1 / Fold change vs veh, ARFIP1 / RFU, FAM179B / Fold change vs veh, FAM179B / RFU, BCL10 / Fold change vs veh, BCL10 / RFU, UHRF1BP1L / Fold change vs veh, UHRF1BP1L / RFU, BET1 / Fold change vs veh, BET1 / RFU, CNOT2 / Fold change vs veh, CNOT2 / RFU, ZNF268 / Fold change vs veh, ZNF268 / Fold change vs veh, ZNF507 / RFU, DGCR2 / Fold change vs veh, DGCR2 / RFU, WDSUB1 / Fold change vs veh, WDSUB1 / Fold change vs veh, HSP90B1 /// MIR3652 / RFU, ADSS / Fold change vs veh, ADSS / RFU, GK / Fold change vs veh, GK / RFU, ZNF148 / Fold change vs veh, ZNF148 / RFU, TAF9 / Fold change vs veh, TAF9 / RFU, SLC1A5 / Fold change vs veh, SLC1A5 / RFU, SLMO2 / Fold change vs veh, SLMO2 / RFU, ABCC4 / Fold change vs veh, ABCC4 / RFU, LOC101060439 /// RAP1B / Fold change vs veh, LOC101060439 /// RAP1B / RFU, RFX7 / Fold change vs veh, RFX7 / RFU, GTPBP10 / Fold change vs veh, GTPBP10 / RFU, CNEP1R1 / Fold change vs veh, CNEP1R1 / RFU, BIVM-ERCC5 /// ERCC5 / Fold change vs veh, BIVM-ERCC5 /// ERCC5 / RFU, ILF3 / Fold change vs veh, ILF3 / RFU 11762660_at / Fold change /veh 11762660_at / RFU VCAN (11757783_s_at) / Fold change /veh VCAN (11757783_s_at) / RFU DDX43 (11728927_at) / Fold change /veh DDX43 (11728927_at) / RFU KRT8 (11758188_x_at) / Fold change /veh KRT8 (11758188_x_at) / RFU NKD1 (11759106_at) / Fold change /veh NKD1 (11759106_at) / RFU SRD5A1 (11742802_a_at) / Fold change /veh SRD5A1 (11742802_a_at) / RFU TPSAB1 /// TPSB2 (11721975_s_at) / Fold change /veh TPSAB1 /// TPSB2 (11721975_s_at) / RFU GSTM3 (11746129_a_at) / Fold change /veh GSTM3 (11746129_a_at) / RFU IL23R (11737362_x_at) / Fold change /veh IL23R (11737362_x_at) / RFU TMEM51 (11727254_a_at) / Fold change /veh TMEM51 (11727254_a_at) / RFU PIWIL2 (11732686_x_at) / Fold change /veh PIWIL2 (11732686_x_at) / RFU ORM1 (11744905_x_at) / Fold change /veh ORM1 (11744905_x_at) / RFU CCDC152 (11743942_at) / Fold change /veh CCDC152 (11743942_at) / RFU ECM1 (11717891_a_at) / Fold change /veh ECM1 (11717891_a_at) / RFU IL23R (11748794_a_at) / Fold change /veh IL23R (11748794_a_at) / RFU TNFAIP8L3 (11732012_x_at) / Fold change /veh TNFAIP8L3 (11732012_x_at) / RFU MBOAT4 (11741988_at) / Fold change /veh MBOAT4 (11741988_at) / RFU 11764193_at / Fold change /veh 11764193_at / RFU TMEM53 (11763286_at) / Fold change /veh TMEM53 (11763286_at) / RFU MAGEB2 (11727129_at) / Fold change /veh MAGEB2 (11727129_at) / RFU TMEM200A (11744735_a_at) / Fold change /veh TMEM200A (11744735_a_at) / RFU CCDC152 (11751479_a_at) / Fold change /veh CCDC152 (11751479_a_at) / RFU FAM211A (11726209_a_at) / Fold change /veh FAM211A (11726209_a_at) / RFU RGS16 (11746705_a_at) / Fold change /veh RGS16 (11746705_a_at) / RFU VCAN (11755009_s_at) / Fold change /veh VCAN (11755009_s_at) / RFU RHOB (11743442_s_at) / Fold change /veh RHOB (11743442_s_at) / RFU RGS16 (11720943_a_at) / Fold change /veh RGS16 (11720943_a_at) / RFU RGS16 (11720944_at) / Fold change /veh RGS16 (11720944_at) / RFU, VPS4B / Fold change vs veh, VPS4B / RFU, CREB1 / Fold change vs veh, CREB1 / RFU, DNAJC13 / Fold change vs veh, DNAJC13 / RFU, GNAQ / Fold change vs veh, GNAQ / RFU, CDK5R1 / Fold change vs veh, CDK5R1 / RFU, ZRANB3 / Fold change vs veh, ZRANB3 / RFU, CUL4A / Fold change vs veh, CUL4A / RFU, CCNY / Fold change vs veh, CCNY / RFU, UFL1 / Fold change vs veh, UFL1 / RFU, COG3 / Fold change vs veh, COG3 / RFU, DIAPH2 / Fold change vs veh, DIAPH2 / RFU, SKA2 / Fold change vs veh, SKA2 / RFU, AFF3 / Fold change vs veh, AFF3 / RFU, LMF1 / Fold change vs veh, LMF1 / RFU, IPO11 / Fold change vs veh, IPO11 / RFU, DFFB / Fold change vs veh, DFFB / RFU, FOXP1 / Fold change vs veh, FOXP1 / RFU, CARD8 / Fold change vs veh, CARD8 / RFU, STRN3 / Fold change vs veh, STRN3 / RFU, ADK / Fold change vs veh, ADK / RFU, RASSF2 / Fold change vs veh, RASSF2 / RFU, WIPF1 / Fold change vs veh, WIPF1 / RFU, LARP1B / Fold change vs veh, LARP1B / RFU, RASA1 / Fold change vs veh, RASA1 / RFU, RB1 / Fold change vs veh, RB1 / RFU, PPFIA1 / Fold change vs veh, PPFIA1 / RFU, MAT2A / Fold change vs veh, MAT2A / RFU, CCT5 / Fold change vs veh, CCT5 / RFU, WDR92 / Fold change vs veh, WDR92 / RFU, CUX1 / Fold change vs veh, CUX1 / RFU, TTC7A / Fold change vs veh, TTC7A / RFU, TMEM135 / Fold change vs veh, TMEM135 / RFU, DEPTOR / Fold change vs veh, DEPTOR / RFU, CPM / Fold change vs veh, CPM / RFU, DNAJB6 / Fold change vs veh, DNAJB6 / RFU, CACNA2D3 / Fold change vs veh, CACNA2D3 / RFU, DTX4 / Fold change vs veh, DTX4 / RFU, TFCP2 / Fold change vs veh, TFCP2 / RFU, GMCL1 /// GMCL1P1 / Fold change vs veh, GMCL1 /// GMCL1P1 / RFU, AEBP2 / Fold change vs veh, AEBP2 / RFU, SNHG1 /// SNORD22 /// SNORD25 /// SNORD26 /// SNORD27 /// SNORD28 /// SNORD29 /// SNORD31 / Fold change vs veh, SNHG1 /// SNORD22 /// SNORD25 /// SNORD26 /// SNORD27 /// SNORD28 /// SNORD29 /// SNORD31 / Fold change (Aza/veh), C12orf56 (ProbeSet 11735607_a_at) / Fold change (ACY-1035/veh), C12orf56 (ProbeSet 11735607_a_at) / Fold change (Aza/veh), FGFR1OP (ProbeSet 11751329_s_at) / Fold change (ACY-1035/veh), FGFR1OP (ProbeSet 11751329_s_at) / Fold change (Aza/veh), VPS36 (ProbeSet 11739960_a_at) / Fold change (ACY-1035/veh), VPS36 (ProbeSet 11739960_a_at) / RFU SYPL1 (11715823_x_at) / Fold change /veh SYPL1 (11715823_x_at) / RFU IGFBP7 (11715501_s_at) / Fold change /veh IGFBP7 (11715501_s_at) / RFU REEP3 (11722064_at) / Fold change /veh REEP3 (11722064_at) / RFU IGLL1 (11728026_x_at) / Fold change /veh IGLL1 (11728026_x_at): dose or concentration left out as unconfirmed
# Conditions: ProbeSet 11739106_a_at; LIST B
smiles,measurement,value
Nc1ncn([C@@H]2O[C@H](CO)[C@@H](O)[C@H]2O)c(=O)n1 [azacitidine],"RFU, TMEM33",268.42 RFU
